Measurements reported in patent US20060034823A1, “Method of production and use of crotoxin as an analgesic” (priority 2004, published 2006).
“And” between values parts separate entries of the source, which are not always exact repeats. Identical values can stand only once. Counter-ions that a name gives are not always drawn. Like-named read-outs stand apart in the source and are kept apart here.

Assays:
[1] = system: pain response in mice induced by Hot Plate; assay type: in vivo, Kunming mice; details: for Pain thresholds: Acetylsalicylic acid 400 mg·kg−1; for Pain threshold, Baseline: before drugs; for Pain threshold, After drug administration: crotoxin 44.3 μg·kg−1; for Time lapse before pain response: Dolantin 40000 μg/kg ip
[2] = system: acetic acid writhing response in mice; experiment: animal or person; assay type: in vivo, Kunming mice
Experimental: In the hot-plate test, a animal is positioned on a hot plate and is exposed to a standard heat source, and the time that the animal voluntarily endures the heat, prior to licking its paws, is recorded. In the acid-writhing test, the animal is injected into the intraperitoneal cavity and results in a writhing response. For the tail-flick test the animal's tail is subjected to heat or electrical stimulus and the time taken for the animal to remove its tail away from the noxious stimulus is recorded. Analgesics, particularly opioid analgesics, will prolong these times relative to controls.
The mice were randomly divided into 5 groups (n=10 in each group): saline control, acetylsalicylic acid 400 mg/kg^−1, crotoxin 66.5, 44.3, or 29.5 mcg.kg^−1 −1. Pain threshold was measured 3 h after drug administration.
The mice were randomly divided into 2 groups (n=10 in each group): saline control and crotoxin 0.3 mcg.kg^−1 −1. The effects of crotoxin on pain threshold were measured 1 hour after crotoxin or saline administration.
The mice were randomly divided into 4 groups (n=10 in each group): saline control, crotoxin 44.3 mcg.kg^−1 −1, acetylsalicylic acid (Ace) 300 mg/kg^−1, and crotoxin+acetylsalicylic acid. Acetylsalicylic acid 300 mg/kg^−1 (im) and crotoxin 44.3 mcg.kg^−1 −1 (im) were administrated at the same time. Pain threshold was determined 2 h after crotoxin administration.

[3] = in vivo; cited from earlier work
animal models of pain = experiment: Crotamine in animal models of pain; assay type: in vivo; details: applicant's own studies vs published observations
Description: The analgesic effect of snake venom proteins has been known since antiquity and several authors have pointed out the efficiency of the administration of crude cobra or rattlesnake venoms in the treatment of trigeminal neuralgias, tabetic and pain caused by tumors. In the cases of tumoral pains, the patients could be maintained without the administration of morphine in 70% of the cases. Obviously, at the time, crude venoms were employed without even an adequate knowledge of the source or mechanism. Sometimes venoms from cobras captured in India or South Africa were employed indistinctly (see, Haast, U.S. Pat. No. 4,341,762). […] With respect to crotamine, it was assumed that this represented the anti-nociceptive component of Crotalus durissus terrificus venom.

CC(=O)Oc1ccccc1C(=O)O [Acetylsalicylic acid, acetylsalicylic acid]
Pain thresholds ([1]; 1 h after administration): 28.12 ± 6.95 s | Pain thresholds ([1]; 2 h after administration): 24.50 ± 14.14 s | Pain thresholds ([1]; 3 h after administration): 26.22 ± 14.32 s | Pain thresholds ([1]; Baseline): 17.36 ± 2.72 s | The number of writhings after administration ([2]; Acetylsalicylic acid 400 mg·kg−1, 3 h after drug administration): 8.80 ± 6.36 times/10 min | inhibition at 400 mg/kg ([2]; Mus musculus, 3 h, read-out: Percentage inhibition compared with control group): 70.1% | effect on the analgesic effects of crotoxin ([2]; acetylsalicylic acid 300 mg/kg (ip)): significantly enhanced | analgesic effect, acetylsalicylic acid study ([2]; acetylsalicylic acid 300 mg/kg, crotoxin 44.3 mcg/kg, given at the same time): significant analgesic effects | The number of writhings ([2]; crotoxin 44.3 μg·kg−1 and acetylsalicylic acid (table: 0.3 mg·kg−1; text: 300 mg/kg) given at the same time, 2 h after crotoxin): 12.13 ± 9.04 times/10 min

CN1[C@@H]2CC[C@H]1C[C@@H](OC(=O)C(CO)c1ccccc1)C2 (stereo partly shown) [Atropine, atropine]
effect of atropine alone on the pain threshold ([1]; atropine 0.5 mg/kg (im)): no significant effect | Pain threshold, Baseline ([1]; atropine study): 16.87 ± 3.10 s | Pain threshold, After drug administration ([1]; atropine 0.5 mg·kg−1 or NS (im) 1.5 h after crotoxin, determined 1.5 h after atropine): 18.46 ± 3.25 s

CCOC(=O)C1(c2ccccc2)CCN(C)CC1 [Dolantin, Meperidine hydrochloride]
analgesic potency relative to morphine [3]: one-tenth as potent an analgesic as morphine | duration [3]: 2 to 4 h | onset of activity [3]: 10 to 45 min | Time lapse before pain response ([1]; 30 min after drug, hydrochloride): 56 s and 56.14 s | Time lapse before pain response ([1]; 60 min after drug): 55.49 s | Time lapse before pain response ([1]; 90 min after drug, hydrochloride): 36 s and 36.36 s | Time lapse before pain response ([1]; 120 min after drug, hydrochloride): 34 s and 34.03 s | Time lapse before pain response ([1]; Pre-drug, hydrochloride): 13.2 s and 13.20 s

C=CCN1CC[C@]23c4c5ccc(O)c4O[C@H]2C(=O)CC[C@@]3(O)[C@H]1C5 [Naloxone, Naloxone hydrochloride]
Pain threshold, After drug administration ([1]; naloxone 3 mg·kg−1 or NS (i.p.) 2.5 hours after crotoxin, determined 30 minutes after naloxone): 19.04 ± 4.88 s | effect of naloxone alone on the pain threshold ([1]; naloxone 3 mg/kg (ip)): no significant influence | effect on the analgesia induced by crotoxin ([1]; naloxone (ip)): had no effect | Pain threshold, Baseline ([1]; naloxone study): 16.97 ± 3.64 s

crotamine (YKQCHKKGGHCFPKEKICLPPSSDFGKMDCRWRWKCCKKGSG; UniProt Q9PWF3 23-64, looked up)
antinociceptive properties (animal models of pain): failed to confirm these published observations
